Measured values: BindingDB's records for doi:10.7270/Q20G3HMV (Burnham Center For Chemical Genomics, 2010)

target: Envelope glycoprotein gp160 (Human immunodeficiency virus 1, UniProt Q6QLK5); assay: blockers of envelope-mediated cell fusion – luminescence reporter, SAR follow-up (AID 435029)
Sequence (Q6QLK5 whole entry, the tested form may be a part): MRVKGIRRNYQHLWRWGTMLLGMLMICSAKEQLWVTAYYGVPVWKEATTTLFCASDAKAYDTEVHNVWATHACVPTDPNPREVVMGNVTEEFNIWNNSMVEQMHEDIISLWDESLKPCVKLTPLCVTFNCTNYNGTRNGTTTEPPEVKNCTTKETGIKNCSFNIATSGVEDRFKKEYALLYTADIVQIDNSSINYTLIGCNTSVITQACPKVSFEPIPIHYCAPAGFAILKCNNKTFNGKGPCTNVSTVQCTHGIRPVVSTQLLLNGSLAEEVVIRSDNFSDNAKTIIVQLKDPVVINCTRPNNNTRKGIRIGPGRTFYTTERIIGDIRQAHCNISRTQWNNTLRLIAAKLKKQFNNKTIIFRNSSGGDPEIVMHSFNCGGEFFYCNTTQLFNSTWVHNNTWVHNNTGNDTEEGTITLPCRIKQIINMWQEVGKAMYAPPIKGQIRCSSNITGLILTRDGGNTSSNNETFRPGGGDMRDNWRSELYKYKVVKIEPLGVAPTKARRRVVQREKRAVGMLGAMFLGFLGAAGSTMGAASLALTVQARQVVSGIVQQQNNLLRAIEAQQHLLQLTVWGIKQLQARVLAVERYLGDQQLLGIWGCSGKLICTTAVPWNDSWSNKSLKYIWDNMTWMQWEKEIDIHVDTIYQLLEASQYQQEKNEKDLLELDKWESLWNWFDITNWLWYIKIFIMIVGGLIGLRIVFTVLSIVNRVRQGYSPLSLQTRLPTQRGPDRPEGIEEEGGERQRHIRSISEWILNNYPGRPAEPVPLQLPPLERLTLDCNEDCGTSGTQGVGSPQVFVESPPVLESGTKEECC

Q: Which IC50 does the source give for Cc1c(Cl)cccc1NS(=O)(=O)c1ccc2c(c1)C1C=CCC1C(c1ccc(C(=O)O)cc1)N2 (centres undefined) here?
A: 5.4 µM

Q: How did the IC50 turn out when CS(=O)(=O)C1=NSC2=NC(=O)/C(=C\c3cccn3-c3ccc(Cl)cc3)C(=N)N21 was run?
A: 8.8 µM

Q: For COc1cc(/C=C2\SC(=O)N(c3ccccc3Cl)C2=O)cc([N+](=O)[O-])c1O, which IC50 is on record?
A: 7.5 µM

Q: How did the IC50 turn out when N#C/C(=C\C1C=CC(=O)C([N+](=O)[O-])=C1)c1nc2ccccc2s1 (centres undefined) was run?
A: 4.65 µM

Q: For CCC(Sc1nc2ccsc2c(=O)n1Cc1ccc(C(=O)O)cc1)C(=O)Nc1ccc(C)c(Cl)c1 (centres undefined), which IC50 is on record?
A: 13.2 µM

Q: CS(=O)(=O)C1=NSC2=NC(=O)/C(=C\c3ccc(OS(=O)(=O)c4ccccc4)cc3)C(=N)N21 was tested. Which IC50 did it give?
A: 12.7 µM

Q: Which IC50 does the source give for CCOc1cc(/C=C2\SC(=O)N(CC(=O)Nc3ccccc3F)C2=O)cc([N+](=O)[O-])c1O here?
A: 8.3 µM

Q: For O=C1Nc2ccc([N+](=O)[O-])cc2C1=NNc1ccccc1C(=O)O [2-[2-(5-nitro-2-oxidanylidene-indol-3-yl)hydrazinyl]benzoic acid], which IC50 is on record?
A: > 100 µM

Q: With CCOC(=O)C1=C(C)N=c2sc(=Cc3ccc(OCC(=O)O)cc3)c(=O)n2C1c1ccc(OC(C)C)cc1 (centres undefined) [2-[4-[[6-ethoxycarbonyl-7-methyl-3-oxo-5-(4-propan-2-yloxyphenyl)-5H-[1,3]thiazolo[3,2-a]pyrimidin-2-ylidene]methyl]phenoxy]acetic acid] as the molecule, how does the IC50 read?
A: 4.45 µM

Q: How did the IC50 turn out when O=c1/c(=C/c2cc([N+](=O)[O-])cc([N+](=O)[O-])c2O)sc2nc3ccccc3n12 [2-[(2-hydroxy-3,5-dinitrophenyl)methylidene]-1-thiazolo[3,2-a]benzimidazolone] was run?
A: 8.6 µM

Q: With CCC(C)(C)C1CCc2c(sc(NC(=O)c3ccccc3C(=O)O)c2C#N)C1 (centres undefined) [2-[[3-cyano-6-(2-methylbutan-2-yl)-4,5,6,7-tetrahydro-1-benzothiophen-2-yl]carbamoyl]benzoic acid] as the molecule, how does the IC50 read?
A: 7.3 µM

Q: How did the IC50 turn out when O=C(O)c1ccccc1C(=O)N(Cc1cccc(Oc2ccc(Cl)cc2)c1)[C@H]1CCCc2ccccc21 [2-[[[3-(4-chlorophenoxy)phenyl]methyl-[(1S)-1,2,3,4-tetrahydronaphthalen-1-yl]amino]-oxomethyl]benzoic acid] was run?
A: 4.1 µM

Q: How did the IC50 turn out when COc1cc(CN=Nc2ccc(Cl)c(C(=O)O)c2)ccc1OC(=O)c1ccc(F)cc1 [2-chloro-5-[2-[[4-[(4-fluorophenyl)-oxomethoxy]-3-methoxyphenyl]methylidene]hydrazinyl]benzoic acid] was run?
A: 30 µM

Q: CC(C)S(=O)(=O)C1=NSC2=NC(=O)/C(=C\c3ccc(-c4cccc(C(=O)O)c4)o3)C(=N)N21 [3-[5-[(Z)-(5-imino-7-oxo-3-propan-2-ylsulfonyl-[1,2,4]thiadiazolo[4,5-a]pyrimidin-6-ylidene)methyl]furan-2-yl]benzoic acid] was tested. Which IC50 did it give?
A: 68 µM

Q: How did the IC50 turn out when O=[N+]([O-])c1cc([N+](=O)[O-])c2oc(-c3ccccc3)c(Br)c2c1O [3-bromanyl-5,7-dinitro-2-phenyl-1-benzofuran-4-ol] was run?
A: 2.5 µM

Q: With O=C(O)CCCN1C(=O)/C(=C/c2ccc(-c3nc4ccccc4s3)o2)SC1=S [4-[(5Z)-5-[[5-(1,3-benzothiazol-2-yl)furan-2-yl]methylidene]-4-oxo-2-sulfanylidene-1,3-thiazolidin-3-yl]butanoic acid] as the molecule, how does the IC50 read?
A: 1 µM

Q: Which IC50 does the source give for CC(C)(C)c1cc(-c2cs/c(=N\c3ccccc3)n2Cc2ccc(C(=O)O)cc2)cc(C(C)(C)C)c1O [4-[[4-(3,5-ditert-butyl-4-oxidanyl-phenyl)-2-phenylazanyl-1,3-thiazol-3-ium-3-yl]methyl]benzoic acid;bromide] here?
A: 3.5 µM

Q: Which IC50 does the source give for Cc1ccc(S(=O)(=O)Oc2ccc(/C=C3/C(=N)N4C(=NC3=O)SN=C4S(C)(=O)=O)cc2)cc1 [4-methylbenzenesulfonic acid [4-[(Z)-(5-imino-3-methylsulfonyl-7-oxo-[1,2,4]thiadiazolo[4,5-a]pyrimidin-6-ylidene)methyl]phenyl] ester] here?
A: 8 µM

Q: O=C1NC(=S)N(c2ccc(F)cc2)C(=O)C1=Cc1ccco1 [(5E)-1-(4-fluorophenyl)-5-(2-furanylmethylidene)-2-sulfanylidene-1,3-diazinane-4,6-dione] was tested. Which IC50 did it give?
A: 20 µM

Q: Which IC50 does the source give for Cc1cc(C)cc(-n2cccc2/C=C2/C(=N)N3C(=NC2=O)SN=C3S(C)(=O)=O)c1 [(6Z)-5-azanylidene-6-[[1-(3,5-dimethylphenyl)pyrrol-2-yl]methylidene]-3-methylsulfonyl-[1,2,4]thiadiazolo[4,5-a]pyrimidin-7-one] here?
A: 4.7 µM

Q: How did the IC50 turn out when CC(C)S(=O)(=O)C1=NSC2=NC(=O)/C(=C\c3ccc(-c4ccccc4)o3)C(=N)N21 [(6Z)-5-imino-6-[(5-phenyl-2-furanyl)methylidene]-3-propan-2-ylsulfonyl-[1,2,4]thiadiazolo[4,5-a]pyrimidin-7-one] was run?
A: 3.2 µM

Q: How did the IC50 turn out when CSc1nnc(-c2ccccc2N=Cc2c(C)[nH]n(-c3ccc4ccccc4c3)c2=O)c(=O)[nH]1 [MLS000540062] was run?
A: 16.5 µM

Q: How did the IC50 turn out when Cc1ccc(-n2cccc2/C=C2/C(=N)N3C(=NC2=O)SN=C3S(C)(=O)=O)cc1Cl [MLS000583163] was run?
A: 4.6 µM

Q: For CC1(C)CC(=O)C2=C(C1)c1c(ccc3ccccc13)NC2c1cc([N+](=O)[O-])cc([N+](=O)[O-])c1O (centres undefined) [MLS000716265], which IC50 is on record?
A: 2.4 µM

Q: With Cc1c2c(=O)n(-c3nc4ccccc4s3)[nH]c2cc(=O)n1Cc1ccccc1 [MLS000762993] as the molecule, how does the IC50 read?
A: 6.58 µM

Q: COc1ccccc1NS(=O)(=O)c1cccc(-n2c(O)c(C=Nc3ccccc3C(=O)O)c3ccccc3c2=O)c1 [MLS000776209] was tested. Which IC50 did it give?
A: 2.3 µM

Q: COc1ccc(OC)c(N2C(=O)C(=Cc3ccco3)C(=O)NC2=S)c1 [MLS001197216] was tested. Which IC50 did it give?
A: 15 µM

Q: For COc1cc(/C=N/NS(=O)(=O)c2ccc3ccccc3c2)ccc1OCc1ccc(C(=O)O)cc1 [MLS-0298745.0001], which IC50 is on record?
A: 31 µM

Q: For O=C(O)c1cc(N=NCc2ccc(-c3ccccc3)cc2)ccc1Cl [MLS-0319671.0001], which IC50 is on record?
A: 10 µM

Q: Which IC50 does the source give for N#C/C(=C\c1ccc(OCc2ccc(Cl)cc2)cc1)C(=O)Nc1cccc(C(=O)O)c1 [MLS-0334991.0001] here?
A: > 100 µM

Q: Which IC50 does the source give for CCS(=O)(=O)C1=NSC2=NC(=O)/C(=C\c3ccc(OS(=O)(=O)c4ccccc4)cc3)C(=N)N21 [MLS-0362442.0001] here?
A: 8.4 µM

Q: CC(C)NC(=O)c1sc(=S)n2c1[nH]c(=O)c1ccc(C(=O)NCCc3ccc(Cl)cc3)cc12 [N8-[2-(4-chlorophenyl)ethyl]-5-oxidanylidene-N3-propan-2-yl-1-sulfanylidene-4H-[1,3]thiazolo[3,4-a]quinazoline-3,8-dicarboxamide] was tested. Which IC50 did it give?
A: 11.1 µM

Q: For O=C1NC(=S)N(C2CCCCC2)C(=O)C1=CNNC(=O)c1ccccc1O [N'-[(E)-(1-cyclohexyl-4,6-dioxo-2-sulfanylidene-1,3-diazinan-5-ylidene)methyl]-2-hydroxybenzohydrazide], which IC50 is on record?
A: 11.5 µM

Q: With O=C1NC(=S)N(c2ccc(F)cc2)C(=O)C1=Cc1ccoc1 [SMR000270574] as the molecule, how does the IC50 read?
A: 11.3 µM

Q: For Cc1ccc(-n2c(O)c(C=Nc3ccccc3-c3n[nH]c(=S)[nH]c3=O)c3ccccc3c2=O)c(C)c1 [SMR000370443], which IC50 is on record?
A: 9.8 µM

Q: How did the IC50 turn out when COC(=O)c1sc(-c2ccc(C(C)(C)C)cc2)cc1NC(=O)c1ccccc1C(=O)O [SMR000456098] was run?
A: 1.5 µM

Q: COc1cc(CN=Nc2ccc(Cl)c(C(=O)O)c2)ccc1OC(=O)c1ccccc1F [SMR000589905] was tested. Which IC50 did it give?
A: 68 µM

Q: With COc1ccc(C(=O)Oc2ccc(CN=Nc3ccc(Cl)c(C(=O)O)c3)cc2OC)cc1 [SMR000589907] as the molecule, how does the IC50 read?
A: 13 µM

Q: How did the IC50 turn out when CCOC(=O)c1sc(N2C(=O)C(=O)C(C(=O)c3ccc(C)o3)C2c2cccc([N+](=O)[O-])c2)nc1C (centres undefined) [ethyl 4-methyl-2-[3-(5-methylfuran-2-yl)carbonyl-2-(3-nitrophenyl)-4-oxidanyl-5-oxidanylidene-2H-pyrrol-1-yl]-1,3-thiazole-5-carboxylate] was run?
A: 5.1 µM
